Like-named read-outs stand apart in the source and are kept apart here.
How the values were obtained:
MKN45 cells = experiment: MKN45 cell proliferation assay (Cell-Titer-Glo, 120 h); type: cell-based; settings: for EC50: Homo sapiens, MKN-45, 120 h, Cell-Titer-Glo, read-out: MKN45 Cell Prolif. 120 hr (EC50); for MKN45 Cell Prolif. 120 hr (Ymin-Obs): minimal percent of DMSO control observed in the concentrations tested
Procedure, shortened: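 Cells seeded at 400/well onto pre-printed 10-point half-log dilutions (top 1 or 10 uM, 0.1% DMSO final), in triplicate, and grown 120 h at 37 C. Viability by Cell-Titer-Glo luminescence, blank-subtracted and normalised to DMSO; EC50 from four-parameter logistic fit, with observed minimal % of control recorded as Ymin-obs.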

WEE1 = target: T1, WEE1 (Homo sapiens, UniProt P30291+Q96SW2); experiment: WEE1-ePL degradation assay (LentiX-WEE1-ePL-GSPT1-ND cells, InCELL Hunter luminescence, 4 h); type: cell-based; settings: 293T-LentiX WEE1-ePL cells; for DC50: read-out: 293T-LentiX WEE1-ePL Degradation 4 hr (EC50)
T1 construct: C-terminal ePL-tagged (DiscoverX, Fremont, CA) full-length WEE1 expression construct; expressed in transfected cells; host or cells: LentiX-HEK293T (Invitrogen), lentiviral transduction; co-expressing GSPT1-GN (G576N, lacking the first 158 amino acids)
Procedure, shortened: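 Luminescent readout (InCELL Hunter, 30 min RT) of WEE1-ePL levels in transduced HEK293T cells after 4 h compound exposure at 37 °C. Dosing: 10 points, 3-fold steps, top 1 uM or 10 uM. EC50 from four-parameter logistic fit; Ymax set by DMSO.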

[1] = lower limit of the fit (0 = luciferase inhibitor, Ymax = DMSO control)

| SMILES | EC50 (MKN45 cells; growth inhibition) | MKN45 Cell Prolif. 120 hr (Ymin-Obs) (MKN45 cells) | 293T-LentiX WEE1-ePL Degradation 4 hr (Ymin) (WEE1; [1]) | DC50 (WEE1) | EC50 (MKN45 cells) | 293T-LentiX WEE1-ePL Degradation 4 hr (Ymin) (WEE1; lower limit of the fit (Ymin=0 luciferase inhibitor, Ymax DMSO control)) |
| --- | --- | --- | --- | --- | --- | --- |
| N#Cc1nc2ccccc2cc1CN1CC[C@H](Oc2ccc3c(c2)CN(C2CCC(=O)NC2=O)C3=O)C1 (stereo partly drawn) [3-{[(3S)-3-{[2-(2,6-dioxopiperidin-3-yl)-1-oxo-2,3-dihydro-1H-isoindol-5-yl]oxy}pyrrolidin-1-yl]methyl}quinoline-2-carbonitrile] | 5.83 nM | 6.985 | 29 | 1.2 nM |  |  |
| O=C1CCC(N2Cc3cc(O[C@H]4CCN(Cc5ccc6nc(N7CCS(=O)(=O)CC7)ncc6c5)C4)ccc3C2=O)C(=O)N1 (stereo partly drawn) [4-(6-{[(3S)-3-{[2-(2,6-dioxopiperidin-3-yl)-1-oxo-2,3-dihydro-1H-isoindol-5-yl]oxy}pyrrolidin-1-yl]methyl}quinazolin-2-yl)-1λ^6-thiomorpholine-1,1-dione] | 51 nM | 17.09 | 42 | 23.6 nM |  |  |
| O=C1CCC(N2Cc3cc(O[C@H]4CCN(Cc5ccc6nc(N7CCS(=O)(=O)CC7)ccc6c5)C4)ccc3C2=O)C(=O)N1 (stereo partly drawn) [4-(6-{[(3S)-3-{[2-(2,6-dioxopiperidin-3-yl)-1-oxo-2,3-dihydro-1H-isoindol-5-yl]oxy}pyrrolidin-1-yl]methyl}quinolin-2-yl)-1λ^6-thiomorpholine-1,1-dione] | 29.4 nM | 10.02 | 40 | 19.1 nM |  |  |
| N#Cc1ccc2cc(CN3C[C@@H](F)[C@H](Oc4ccc5c(c4)CN(C4CCC(=O)NC4=O)C5=O)C3)ccc2n1 (stereo partly drawn) [6-{[(3R,4R)-3-{[2-(2,6-dioxopiperidin-3-yl)-1-oxo-2,3-dihydro-1H-isoindol-5-yl]oxy}-4-fluoropyrrolidin-1-yl]methyl}quinoline-2-carbonitrile] | 91.6 nM | 37.36 | 32.7 | 22.3 nM |  |  |
| N#Cc1ccc2cc(CN3C[C@H](F)[C@H](Oc4ccc5c(c4)CN(C4CCC(=O)NC4=O)C5=O)C3)ccc2n1 (stereo partly drawn) [6-{[(3R,4S)-3-{[2-(2,6-dioxopiperidin-3-yl)-1-oxo-2,3-dihydro-1H-isoindol-5-yl]oxy}-4-fluoropyrrolidin-1-yl]methyl}quinoline-2-carbonitrile] | 22.7 nM | 24.13 | 33.71 | 13.1 nM |  |  |
| N#Cc1ccc2cc(CN3CC[C@H](Oc4ccc5c(c4)CN([C@H]4CCC(=O)NC4=O)C5=O)C3)cc(F)c2n1 [6-{[(3S)-3-({2-[(3S)-2,6-dioxopiperidin-3-yl]-1-oxo-2,3-dihydro-1H-isoindol-5-yl}oxy)pyrrolidin-1-yl]methyl}-8-fluoroquinoline-2-carbonitrile] | 2.72 nM | 8.579 | 27.19 | 1.71 nM |  |  |
| N#Cc1ccc2cc(CN3CC[C@H](Oc4ccc5c(c4)CN([C@H]4CCC(=O)NC4=O)C5=O)C3)ccc2n1 [6-{[(3S)-3-({2-[(3S)-2,6-dioxopiperidin-3-yl]-1-oxo-2,3-dihydro-1H-isoindol-5-yl}oxy)pyrrolidin-1-yl]methyl}quinoline-2-carbonitrile] |  | 14.78 |  | 2.46 nM | 6.01 nM | 28.06 |
| C[C@]1(Oc2ccc3c(c2)CN(C2CCC(=O)NC2=O)C3=O)CCN(Cc2ccc3nc(C#N)ccc3c2)C1 (stereo partly drawn) [6-{[(3S)-3-{[2-(2,6-dioxopiperidin-3-yl)-1-oxo-2,3-dihydro-1H-isoindol-5-yl]oxy}-3-methylpyrrolidin-1-yl]methyl}quinoline-2-carbonitrile] | > 10000 nM | 80.88 | 94 |  |  |  |
| Cc1cc(C#N)c2cc(CN3CC[C@H](Oc4ccc5c(c4)CN(C4CCC(=O)NC4=O)C5=O)C3)ccc2n1 (stereo partly drawn) [6-{[(3S)-3-{[2-(2,6-dioxopiperidin-3-yl)-1-oxo-2,3-dihydro-1H-isoindol-5-yl]oxy}pyrrolidin-1-yl]methyl}-2-methylquinoline-4-carbonitrile] | > 10000 nM | 86.89 | 66.8 | 20.7 nM |  |  |
| N#Cc1nc2ccc(CN3CC[C@H](Oc4ccc5c(c4)CN(C4CCC(=O)NC4=O)C5=O)C3)cc2cc1F (stereo partly drawn) [6-{[(3S)-3-{[2-(2,6-dioxopiperidin-3-yl)-1-oxo-2,3-dihydro-1H-isoindol-5-yl]oxy}pyrrolidin-1-yl]methyl}-3-fluoroquinoline-2-carbonitrile] | 32.8 nM | 12.265 | 35 | 7.79 nM |  |  |
| CN(C)C(=O)c1ccc2cc(CN3CC[C@H](Oc4ccc5c(c4)CN(C4CCC(=O)NC4=O)C5=O)C3)ccc2n1 (stereo partly drawn) [6-{[(3S)-3-{[2-(2,6-dioxopiperidin-3-yl)-1-oxo-2,3-dihydro-1H-isoindol-5-yl]oxy}pyrrolidin-1-yl]methyl}-N,N-dimethylquinoline-2-carboxamide] | 17.5 nM | 8.56 | 29.42 | 9.05 nM |  |  |
| CNC(=O)c1ncc2cc(CN3CC[C@H](Oc4ccc5c(c4)CN(C4CCC(=O)NC4=O)C5=O)C3)ccc2n1 (stereo partly drawn) [6-{[(3S)-3-{[2-(2,6-dioxopiperidin-3-yl)-1-oxo-2,3-dihydro-1H-isoindol-5-yl]oxy}pyrrolidin-1-yl]methyl}-N-methylquinazoline-2-carboxamide] | 337 nM | 8.51 | 38 | 175 nM |  |  |
| CNC(=O)c1ccc2cc(CN3CC[C@H](Oc4ccc5c(c4)CN(C4CCC(=O)NC4=O)C5=O)C3)ccc2n1 (stereo partly drawn) [6-{[(3S)-3-{[2-(2,6-dioxopiperidin-3-yl)-1-oxo-2,3-dihydro-1H-isoindol-5-yl]oxy}pyrrolidin-1-yl]methyl}-N-methylquinoline-2-carboxamide] | 11.7 nM | 9.36 | 26.91 | 4.27 nM |  |  |
| N#Cc1ccc(CN2CC[C@H](Oc3ccc4c(c3)CN(C3CCC(=O)NC3=O)C4=O)C2)nc1 (stereo partly drawn) [6-{[(3S)-3-{[2-(2,6-dioxopiperidin-3-yl)-1-oxo-2,3-dihydro-1H-isoindol-5-yl]oxy}pyrrolidin-1-yl]methyl}pyridine-3-carbonitrile] | > 10000 nM | 69.48 | 64 | 61 nM |  |  |
| N#Cc1ncc2cc(CN3CC[C@H](Oc4ccc5c(c4)CN(C4CCC(=O)NC4=O)C5=O)C3)ccc2n1 (stereo partly drawn) [6-{[(3S)-3-{[2-(2,6-dioxopiperidin-3-yl)-1-oxo-2,3-dihydro-1H-isoindol-5-yl]oxy}pyrrolidin-1-yl]methyl}quinazoline-2-carbonitrile] | 73 nM | 17.27 | 35 | 12.1 nM |  |  |
| N#Cc1ccc2cc(CN3CC[C@H](Oc4ccc5c(c4)CN(C4CCC(=O)NC4=O)C5=O)C3)ccc2n1 (stereo partly drawn) [6-{[(3S)-3-{[2-(2,6-dioxopiperidin-3-yl)-1-oxo-2,3-dihydro-1H-isoindol-5-yl]oxy}pyrrolidin-1-yl]methyl}quinoline-2-carbonitrile] | 7.92 nM | 9.504 | 27.49 | 3.05 nM |  |  |
| NC(=O)c1ccc2cc(CN3CC[C@H](Oc4ccc5c(c4)CN(C4CCC(=O)NC4=O)C5=O)C3)ccc2n1 (stereo partly drawn) [6-{[(3S)-3-{[2-(2,6-dioxopiperidin-3-yl)-1-oxo-2,3-dihydro-1H-isoindol-5-yl]oxy}pyrrolidin-1-yl]methyl}quinoline-2-carboxamide] | 17.1 nM | 10.71 | 26.545 | 3.53 nM |  |  |
| N#Cc1cnc2ccc(CN3CC[C@H](Oc4ccc5c(c4)CN(C4CCC(=O)NC4=O)C5=O)C3)cc2c1 (stereo partly drawn) [6-{[(3S)-3-{[2-(2,6-dioxopiperidin-3-yl)-1-oxo-2,3-dihydro-1H-isoindol-5-yl]oxy}pyrrolidin-1-yl]methyl}quinoline-3-carbonitrile] | 44 nM | 12.18 | 33 | 4.18 nM |  |  |
| N#Cc1ccc2cc(CN3CC[C@H](Oc4ccc5c(c4F)CN(C4CCC(=O)NC4=O)C5=O)C3)ccc2n1 (stereo partly drawn) [6-{[(3S)-3-{[2-(2,6-dioxopiperidin-3-yl)-4-fluoro-1-oxo-2,3-dihydro-1H-isoindol-5-yl]oxy}pyrrolidin-1-yl]methyl}quinoline-2-carbonitrile] | 1430 nM | 62.465 | 47 | 61.5 nM |  |  |
| N#Cc1ccc2cc(CN3CC[C@H](Oc4cc5c(cc4F)C(=O)N(C4CCC(=O)NC4=O)C5)C3)ccc2n1 (stereo partly drawn) [6-{[(3S)-3-{[2-(2,6-dioxopiperidin-3-yl)-6-fluoro-1-oxo-2,3-dihydro-1H-isoindol-5-yl]oxy}pyrrolidin-1-yl]methyl}quinoline-2-carbonitrile] | 23.8 nM | 8.55 | 30.5 | 5.28 nM |  |  |

Source: US20240067632A1, “WEE1 Degrading Compounds and Uses Thereof” (Bristol-Myers Squibb Company, priority 2022, published 2024)
